Experimental data as given in PubChem BioAssay AID328 (DTP/NCI, 2004).
Values joined by “and” are separate entries in the source; they are usually repeats but may differ in a detail not shown here. Equal values may be shown once. Toxic doses and inconclusive results are not listed. The calls were made as follows: active = survival T/C of 150% or more; inactive = T/C below 125% in these data.

Tested on: BDF1 mice, P388 leukemia ip, median survival T/C
Assay: NCI In Vivo Anticancer Drug Screen. Data for tumor model P388 Leukemia (intraperitoneal) in B6D2F1 (BDF1) mice
Settings: endpoint: median survival time, higher = longer survival
Summary of the method: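 In tumour-bearing mice, survival after compound treatment is set against the vehicle group and given as a quotient.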

[1] = dose: 100.0 mg/kg/injection, schedule: Q01DX009 (ip), vehicle: saline with Tween-80
[2] = dose: 100.0 mg/kg/injection, schedule: Q04DX003 (ip), vehicle: saline
[3] = dose: 200.0 mg/kg/injection, schedule: Q01DX009 (ip), vehicle: saline with Tween-80
[4] = dose: 200.0 mg/kg/injection, schedule: Q04DX003 (ip), vehicle: saline
[5] = dose: 400.0 mg/kg/injection, schedule: Q01DX009 (ip), vehicle: saline with Tween-80
[6] = dose: 50.0 mg/kg/injection, schedule: Q01DX009 (ip), vehicle: saline
[7] = dose: 50.0 mg/kg/injection, schedule: Q04DX003 (ip), vehicle: saline
[8] = dose: 100.0 mg/kg/injection, schedule: Q01DX009 (ip), vehicle: saline
[9] = dose: 100.0 mg/kg/injection, schedule: Q04DX003 (ip), vehicle: saline with Tween-80
[10] = dose: 200.0 mg/kg/injection, schedule: Q04DX003 (ip), vehicle: saline with Tween-80
[11] = dose: 400.0 mg/kg/injection, schedule: Q04DX003 (ip), vehicle: saline with Tween-80
[12] = dose: 25.0 mg/kg/injection, schedule: Q04DX003 (ip), vehicle: saline with Tween-80
[13] = dose: 50.0 mg/kg/injection, schedule: Q04DX003 (ip), vehicle: saline with Tween-80

Measured: T/C

Nc1nc2c(c(=O)[nH]1)N(C=O)C(CNc1ccc(C(=O)N[C@@H](CCC(=O)O)C(=O)O)cc1)CN2 (stereo not given in full)
inactive: [1] 95 % of control | [2] 104 % of control | [3] 95 % of control | [4] 104 % of control | [5] 95 % of control | dose: 400.0 mg/kg/injection, schedule: Q04DX003 (ip), vehicle: saline 100 % of control

C#CC(C)OCC1CO1 (stereo not given)
inactive: [6] 91 % of control | [7] 108 % of control | [8] 95 % of control | [2] 91 % of control | [4] 108 % of control

CSc1ncncc1N
inactive: [6] 105 % of control | [8] 105 % of control

CCSCCCCSCC
inactive: [9] 104 % of control | [10] 104 % of control | [11] 100 % of control

c1ccc(CC2NCCc3ccccc32)cc1 (stereo not given)
inactive: dose: 25.0 mg/kg/injection, schedule: Q01DX009 (ip), vehicle: saline with Tween-80 96 % of control | [12] 115 % of control | dose: 50.0 mg/kg/injection, schedule: Q01DX009 (ip), vehicle: saline with Tween-80 111 % of control | [13] 105 % of control | [1] 107 % of control | [9] 105 % of control

CCCCCC[C@@H](O)C/C=C\CCCCCCCC(=O)OCCO
inactive: dose: 50.0 mg/kg/injection, schedule: Q01DX005 (ip), vehicle: saline 99 % of control | dose: 100.0 mg/kg/injection, schedule: Q01DX005 (ip), vehicle: saline 107 % of control | dose: 200.0 mg/kg/injection, schedule: Q01DX005 (ip), vehicle: saline 93 % of control | dose: 400.0 mg/kg/injection, schedule: Q01DX005 (ip), vehicle: saline 105 % of control | dose: 800.0 mg/kg/injection, schedule: Q01DX005 (ip), vehicle: saline 115 % of control | dose: 1600.0 mg/kg/injection, schedule: Q01DX005 (ip), vehicle: saline 107 % of control

N=C(N)CCNC(=O)C1CCC(N)=N1 (stereo not given)
inactive: dose: 2.0 mg/kg/injection, schedule: Q01DX009 (ip), vehicle: saline 91 % of control | dose: 4.0 mg/kg/injection, schedule: Q01DX009 (ip), vehicle: saline 100 % of control | dose: 8.0 mg/kg/injection, schedule: Q01DX009 (ip), vehicle: saline 108 % of control

O=S(=O)(C1=CCCCC1)C1=CCCCC1
inactive: [12] 104 % of control | [13] 99 % of control | [9] 88 % of control and 100 % of control

CC1=CC(=O)[C@@H](O)[C@]2(C)[C@H]3[C@@]4(O)OC[C@]35[C@H]([C@@H](C)[C@H]4O)[C@@H](OC(=O)c3ccccc3)C(=O)O[C@@H]5C[C@@H]12
inactive: dose: 0.03 mg/kg/injection, schedule: Q01DX009 (ip), vehicle: saline with Tween-80 121 % of control | dose: 0.06 mg/kg/injection, schedule: Q01DX009 (ip), vehicle: saline with Tween-80 118 % of control | dose: 0.12 mg/kg/injection, schedule: Q01DX009 (ip), vehicle: saline with Tween-80 122 % of control

CCOC(Cn1ccc(=O)[nH]c1=O)OCC
inactive: dose: 100.0 mg/kg/injection, schedule: Q04DX003 (ip), vehicle: saline sonified 100 % of control | dose: 200.0 mg/kg/injection, schedule: Q04DX003 (ip), vehicle: saline sonified 104 % of control | dose: 400.0 mg/kg/injection, schedule: Q04DX003 (ip), vehicle: saline sonified 109 % of control

CC(C)(C)C#C[P+](C#CC(C)(C)C)(Cc1ccccc1)c1ccccc1
inactive: dose: 12.5 mg/kg/injection, schedule: Q01DX009 (ip), vehicle: saline 96 % of control | dose: 12.5 mg/kg/injection, schedule: Q04DX003 (ip), vehicle: saline 123 % of control | dose: 25.0 mg/kg/injection, schedule: Q04DX003 (ip), vehicle: saline 123 % of control | [7] 107 % of control

Cc1cc(C)cc(NC(=O)c2ccccc2N)c1
inactive: [1] 95 % of control | [9] 109 % of control | [3] 95 % of control | [10] 90 % of control | [5] 104 % of control | [11] 100 % of control
